Among the data in patent US20240374587A1, “MEDICINE FOR PREVENTION AND TREATMENT OF DISEASES LINKED TO ANTI-OBESITY ACTIVITY” (Shionogi & Co., Ltd., priority 2021, published 2024) are IC50 values, retold here.

Bounds are passed on as bounds.

Chain of human MGAT2 (Q3SYC2 whole entry): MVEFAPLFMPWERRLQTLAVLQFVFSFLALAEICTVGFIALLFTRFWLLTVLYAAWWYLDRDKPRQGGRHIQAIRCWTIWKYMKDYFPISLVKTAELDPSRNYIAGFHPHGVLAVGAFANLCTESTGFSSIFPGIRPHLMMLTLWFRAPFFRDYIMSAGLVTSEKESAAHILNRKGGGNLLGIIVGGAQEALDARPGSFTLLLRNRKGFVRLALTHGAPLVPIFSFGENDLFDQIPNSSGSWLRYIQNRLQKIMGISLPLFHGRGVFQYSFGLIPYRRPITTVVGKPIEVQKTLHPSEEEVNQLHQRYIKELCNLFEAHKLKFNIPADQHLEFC

In this test the target is human MGAT2 (Homo sapiens (Human), UniProt Q3SYC2). Put plainly: Measurement of human MGAT2 inhibitory activity. Type of test: biochemical. Conditions: concentration exhibiting 50% enzyme inhibition. The method, then:
Solutions of the compounds of the present invention in DMSO were each aliquoted into 0.2·μL portions in a 384-well polystyrene microplate produced by Corning Incorporated, and 5 μL of an enzyme solution prepared with an assay buffer (100 mmol/L phosphate buffer (pH 7.4) containing 2 mmol/L DTT) and 5 μL of a substrate solution (100 mmol/L phosphate buffer (pH 7.4), 30 μmol/L 2-Oleoylglycerol, 10 μmol/L Oleoyl-CoA) were added thereto, and the resultant was stirred and centrifuged, and incubated in a moist chamber at room temperature for 1 hour. After enzymatic reaction, 50 μL of a quenching solution (containing 0.2 μmol/L Diolein-d5, 0.4% formic acid, and 50% isopropanol) containing Internal Standard (IS) was added to terminate the reaction, and the resultant was sealed in a plate produced by Shimadzu GLC Ltd., and then stirred and centrifuged, and measurement was performed by using an electrospray ionization method with a RapidFire360 and Agilent 6550 Q-TOF mass spectrometer. Diolein as a reaction product (P) of 2-Oleoylglycerol as the substrate and an ammonium adduct ion of the IS were detected, and the peak intensity ratio, P/IS, was calculated from the peak heights to evaluate the inhibitory activity. Inhibitory activities with/without addition of enzyme were defined as Control (+)/Control (−), respectively, and the respective % inhibitions were defined as 0% inhibition and 100% inhibition. The inhibitory activity was calculated from the formula below with TIBCO Spotfire (produced by TIBCO Software Inc.) with the peak intensity ratio, P/IS, at the time of addition of the compound of the present invention being as Sample: […]
`CS(=O)(=O)CC(=O)Nc1c2c(nn1-c1ccc(F)cn1)C[C@]1(CCOc3cc(OCC(F)(F)F)ccc31)NC2=O` [II-295] showed a half-inhibitory concentration (IC50) below 1 nM.

In the case of `Cc1ccc(-n2nc3c(c2NC(=O)CS(C)(=O)=O)C(=O)N[C@@]2(CCc4cc(OCC(F)(F)F)ccc42)C3)nc1` [Compound I-236], the IC50 was found to be 2.8 nM.

Compound `CCOc1ccc2c(c1)OCC[C@]21Cn2nc(-c3ccc(F)c(F)c3)c(NC(=O)CS(C)(=O)=O)c2C(=O)N1` [I′-133] returned an IC50 of 1.39 nM.

Turning to `CCS(=O)(=O)CC(=O)Nc1c(-c2ccc(C)cn2)nn2c1C(=O)N[C@@]1(CCOc3cc(F)cc(F)c31)C2` [I′-136], the half-inhibitory concentration (IC50) was 4.97 nM.

As to `CS(=O)(=O)CC(=O)Nc1c(-c2ccc(F)c(F)c2)nn2c1C(=O)N[C@@]1(CCOc3cc(F)cc(F)c31)C2` [I′-126], the IC50 is 1.59 nM.

Compound `Cc1ccc(-n2nc3c(c2NC(=O)CS(C)(=O)=O)C(=O)N[C@@]2(CCc4cc(OCCCC(F)(F)F)ccc42)C3)nn1` [II-103] came in with an IC50 of 1.61 nM.

Turning to `CS(=O)(=O)CC(=O)Nc1c(-c2ccc(Cl)cn2)nn2c1C(=O)N[C@@]1(CCc3cc(F)cc(F)c31)C2` [I′-142], the IC50 stood at 2.88 nM.

As to `CS(=O)(=O)CC(=O)Nc1c2c(nn1-c1ccc(C(F)F)cc1)C[C@]1(CCc3cc(OCC(F)(F)F)ccc31)NC2=O` [II-174], the IC50 came out at 2.16 nM.

In the case of `Cc1ccc(-c2nn3c(c2NC(=O)CS(C)(=O)=O)C(=O)N[C@@]2(CCc4cc(OCC(F)(F)F)ccc42)C3)nc1` [I′-006], half-maximal inhibition (IC50) required 2.25 nM.

As for `CS(=O)(=O)CC(=O)Nc1c(-c2ccc(F)c(F)c2)nn2c1C(=O)N[C@@]1(CCc3cc(OCC(F)(F)F)ccc31)C2` [I′-033], the IC50 turned out to be 0.73 nM.

For `Cc1ccc(-c2nn3c(c2NC(=O)CS(C)(=O)=O)C(=O)N[C@@]2(CCc4cc(F)cc(F)c42)C3)nc1` [I′-139], the IC50 amounted to 15.8 nM.

For the compound `CS(=O)(=O)CC(=O)Nc1c2c(nn1CCC1CC1)C[C@]1(CCc3cc(OCC(F)(F)F)ccc31)NC2=O` [Compound I-008], the IC50 was 2.78 nM.

On to `CS(=O)(=O)CC(=O)Nc1c(CCC2CC2)nn2c1C(=O)N[C@@]1(CCc3cc(OCC(F)(F)F)ccc31)C2` [I′-046], for which the IC50 came out at 1.17 nM.

The compound `CS(=O)(=O)CC(=O)Nc1c2c(nn1-c1ccc(F)c(F)c1)C[C@]1(CCOc3cc(CCC(F)(F)F)ccc31)NC2=O` [II-225] displayed an IC50 of 1.14 nM. This IC50 and that of the compound before are within 1.5-fold of each other.

The compound `CS(=O)(=O)CC(=O)Nc1c(-c2ccc(Cl)cn2)nn2c1C(=O)N[C@]1(CCc3cc(F)cc(F)c31)C2` [I′-147] yielded an IC50 of 3.5 nM.

For `CS(=O)(=O)CC(=O)Nc1c2c(nn1CCCOC(F)(F)F)C[C@]1(CCc3cc(OCC(F)(F)F)ccc31)NC2=O` [Compound I-253], 1.4 nM corresponded to half-maximal inhibition (IC50).

With `CS(=O)(=O)CC(=O)Nc1c(-c2ccc(F)cc2)nn2c1C(=O)N[C@]1(CCc3cc(OCC(F)(F)F)ccc31)C2` [I′-079], half-maximal inhibition (IC50) required 1.13 nM.

Compound `Cc1ccc(-n2nc3c(c2NC(=O)CS(C)(=O)=O)C(=O)N[C@@]2(CCOc4cc(F)cc(F)c42)C3)nc1` [II-203] gave an IC50 of 2.98 nM. Compared with the last compound, the IC50 is about 2.6-fold higher.

`CS(=O)(=O)CC(=O)Nc1c(-c2ccc(F)c(F)c2)nn2c1C(=O)N[C@@]1(CCc3cc(F)cc(F)c31)C2` [I′-130] yielded an IC50 of 4.51 nM.

Take `Cc1ccc(-c2nn3c(c2NC(=O)CS(C)(=O)=O)C(=O)N[C@@]2(CCc4cc(OCC(F)(F)F)ccc42)C3)cc1` [I′-020]: it took 1.97 nM to reach half-maximal inhibition (IC50).

By IC50 is commonly meant the concentration needed to halve the response being measured. Read a low IC50 as greater potency.
